Experimental data taken from patent publication US9809587B2, “Pesticidally active heterocyclic derivatives with sulphur containing substituents” (Syngenta Participations AG, priority 2014, dated 2017).

Assays:
Assay type in all cases: in vivo
[1] = test system: Tetranychus urticae (Two-Spotted Spider Mite); assay: Tetranychus urticae (two-spotted spider mite), sprayed bean leaf discs; conditions: foliar, 192 h, application rate of 200 ppm, mixed population (mobile stages) on bean leaf discs, 8 days after infestation
Procedure: Example B9: Tetranychus urticae (Two-Spotted Spider Mite)
Bean leaf discs on agar in 24-well microtiter plates were sprayed with aqueous test solutions prepared from 10′000 ppm DMSO stock solutions. After drying the leaf discs were infested with a mite population of mixed ages. The samples were assessed for mortality on mixed population (mobile stages) 8 days after infestation.

[2] = test system: Thrips tabaci (Onion Thrips); assay: Thrips tabaci (onion thrips), sprayed sunflower leaf discs; conditions: foliar, 144 h, application rate of 200 ppm, mixed ages on sunflower leaf discs, 6 days after infestation
Procedure: Example B10: Thrips tabaci (Onion Thrips)
(§1) Sunflower leaf discs were placed on agar in 24-well microtiter plates and sprayed with aqueous test solutions prepared from 10′000 ppm DMSO stock solutions. After drying the leaf discs were infested with a thrips population of mixed ages. The samples were assessed for mortality 6 days after infestation.

[3] = test system: Frankliniella occidentalis (Western Flower Thrips); assay: Frankliniella occidentalis (western flower thrips), sprayed sunflower leaf discs; conditions: foliar, 168 h, application rate of 200 ppm, mixed ages on sunflower leaf discs, 7 days after infestation
Procedure: Example B11: Frankliniella occidentalis (Western Flower Thrips)
as §1, with “[…]” for “10′000 ppm”, “Frankliniella” for “thrips”, “7” for “6”

[4] = test system: Spodoptera littoralis (Egyqptian Cotton Leaf Worm); assay: Spodoptera littoralis (Egyptian cotton leaf worm), sprayed cotton leaf discs; conditions: foliar, 72 h, application rate of 200 ppm, L1 larvae on cotton leaf discs, 3 days after infestation
Outline: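 Cotton leaf discs on agar were sprayed with aqueous dilutions made from 10′000 ppm DMSO stocks, then infested after drying with five L1 larvae. Mortality, anti-feedant effect and growth inhibition were scored against untreated discs 3 days after infestation. Control means at least one of these exceeds the untreated sample.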

[5] = test system: Bemisia tabaci (Cotton White Fly); assay: Bemisia tabaci (cotton white fly), sprayed cotton leaf discs; conditions: foliar, 144 h, application rate of 200 ppm, adult white flies on cotton leaf discs, 6 days after incubation
Procedure: Example B1: Bemisia tabaci (Cotton White Fly)
Cotton leaf discs were placed on agar in 24-well microtiter plates and sprayed with aqueous test solutions prepared from 10′000 ppm DMSO stock solutions. After drying the leaf discs were infested with adult white flies. The samples were checked for mortality 6 days after incubation.

[6] = test system: Plutella xylostella (Diamond Back Moth); assay: Plutella xylostella (diamond back moth), treated artificial diet; conditions: 120 h, application rate of 200 ppm, L2 larvae on artificial diet, 5 days after infestation, read-out: effect in at least one of the two categories (mortality or growth inhibition)
Outline: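 Artificial diet treated with aqueous dilutions of DMSO stocks (10′000 ppm stock), dried, then infested with 10-15 L2 larvae per well. Mortality and growth inhibition assessed versus untreated controls 5 days after infestation.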

[7] = test system: Diabrotica balteata (Corn Root Worm); assay: Diabrotica balteata (corn root worm), sprayed maize sprouts; conditions: 96 h, application rate of 200 ppm, L2 larvae on maize sprouts, 4 days after infestation
Procedure: Example B2: Diabrotica balteata (Corn Root Worm)
Maize sprouts, placed on an agar layer in 24-well microtiter plates were treated with aqueous test solutions prepared from 10′000 ppm DMSO stock solutions by spraying. After drying, the plates were infested with L2 larvae (6 to 10 per well). The samples were assessed for mortality and growth inhibition in comparison to untreated samples 4 days after infestation.

[8] = test system: Euschistus heros (Neotropical Brown Stink Bug); assay: Euschistus heros (neotropical brown stink bug), sprayed soybean leaf; conditions: 120 h, application rate of 200 ppm, N-2 nymphs on soybean leaf, 5 days after infestation
Procedure: Example B3: Euschistus heros (Neotropical Brown Stink Bug)
Soybean leaf on agar in 24-well microtiter plates were sprayed with aqueous test solutions prepared from 10′000 ppm DMSO stock solutions. After drying the leaf were infested with N-2 nymphs. The samples were assessed for mortality in comparison to untreated samples 5 days after infestation.

[9] = test system: Aedes aegypti (Yellow Fever Mosquito); assay: Activity against Aedes aegypti (yellow fever mosquito), dried deposits in tissue culture plates; conditions: application rate of 200 ppm in ethanol, adult females, after 48 h
Procedure: Example B12: Activity Against Aedes aegypti (Yellow Fever Mosquito)
Test solutions, at an application rate of 200 ppm in ethanol, were applied to 12-well tissue culture plates. Once the deposits were dry, five, two to five days old adult female Aedes aegypti were added to each well, and sustained with a 10% sucrose solution in a cotton wool plug. Assessment of knockdown was made one hour after introduction, and mortality was assessed at 24 and 48 hours after introduction.
The following compounds gave at least 80% control of Aedes aegypti after 48 h: […]

[10] = test system: Myzus persicae (Green Peach Aphid); assay: Myzus persicae (green peach aphid), sprayed sunflower leaf discs; conditions: foliar, 144 h, application rate of 200 ppm, mixed ages on sunflower leaf discs, 6 days after infestation
Procedure: Example B4: Myzus persicae (Green Peach Aphid)
Sunflower leaf discs were placed on agar in a 24-well microtiter plate and sprayed with aqueous test solutions prepared from 10′000 ppm DMSO stock solutions. After drying, the leaf discs were infested with an aphid population of mixed ages. The samples were assessed for mortality 6 days after infestation.

[11] = test system: Spodoptera littoralis (Egyqptian Cotton Leaf Worm); assay: Spodoptera littoralis (Egyptian cotton leaf worm), compound in agar taken up by lettuce roots; conditions: 144 h, test rate of 12.5 ppm, uptake by lettuce roots from agar, 6 days after infestation, read-out: effect in at least one of the three categories (mortality, anti-feedancy, or growth inhibition)
Outline: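 Compound mixed into agar from a 10′000 ppm DMSO stock and taken up over 7 days by lettuce roots; cut leaves then infested with Spodoptera eggs. Mortality, anti-feedant effect and growth inhibition scored against untreated samples 6 days after infestation.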

[12] = test system: Myzus persicae (Green Peach Aphid); assay: Myzus persicae (green peach aphid), roots of pea seedlings in test solution; conditions: 144 h, test rate of 24 ppm, roots of infested pea seedlings in test solution, 6 days
Procedure: Example B5: Myzus persicae (Green Peach Aphid)
Roots of pea seedlings infested with an aphid population of mixed ages were placed directly in the aqueous test solutions prepared from 10′000 DMSO stock solutions. The samples were assessed for mortality 6 days after placing seedlings in test solutions.

CCS(=O)(=O)c1cc(-c2cc(C(F)(F)F)ccn2)cnc1-c1nc2cc(C(F)(F)F)ncc2n1C [Compound P21]
≥ 80%: mortality at 200 ppm [1] | mortality at 200 ppm [2] | mortality at 200 ppm [3] | percent control (mortality, anti-feedant effect or growth inhibition) at 200 ppm [4] | mortality at 200 ppm [5] | percent effect (mortality or growth inhibition) at 200 ppm [6] | mortality at 200 ppm [7] | mortality at 200 ppm [8] | pest or weed control at 200 ppm [9] | mortality at 200 ppm [10] | percent control (mortality, anti-feedancy or growth inhibition) at 12.5 ppm [11]

CCS(=O)(=O)c1cc(-c2ncc(C(F)(F)F)cn2)cnc1-c1nc2cc(C(F)(F)F)ncc2n1C [Compound P25]
≥ 80%: mortality at 200 ppm [1] | mortality at 200 ppm [2] | mortality at 200 ppm [3] | percent control (mortality, anti-feedant effect or growth inhibition) at 200 ppm [4] | mortality at 200 ppm [5] | percent effect (mortality or growth inhibition) at 200 ppm [6] | mortality at 200 ppm [7] | mortality at 200 ppm [8] | pest or weed control at 200 ppm [9] | mortality at 200 ppm [10] | percent control (mortality, anti-feedancy or growth inhibition) at 12.5 ppm [11]

CCS(=O)(=O)c1cc(-c2ncccn2)cnc1-c1nc2cc(C(F)(F)F)ncc2n1C [Compound P27]
≥ 80%: mortality at 200 ppm [1] | mortality at 24 ppm [12] | mortality at 200 ppm [3] | percent control (mortality, anti-feedant effect or growth inhibition) at 200 ppm [4] | mortality at 200 ppm [5] | percent effect (mortality or growth inhibition) at 200 ppm [6] | mortality at 200 ppm [7] | mortality at 200 ppm [8] | mortality at 200 ppm [10] | percent control (mortality, anti-feedancy or growth inhibition) at 12.5 ppm [11]

CCS(=O)(=O)c1cc(-c2ncc(F)cc2F)cnc1-c1nc2cc(C(F)(F)F)ncc2n1C [Compound P35]
≥ 80%: mortality at 200 ppm [1] | mortality at 24 ppm [12] | mortality at 200 ppm [3] | percent control (mortality, anti-feedant effect or growth inhibition) at 200 ppm [4] | mortality at 200 ppm [5] | percent effect (mortality or growth inhibition) at 200 ppm [6] | mortality at 200 ppm [7] | mortality at 200 ppm [10] | percent control (mortality, anti-feedancy or growth inhibition) at 12.5 ppm [11]

CCS(=O)(=O)c1cc(-c2cccc(C#N)n2)cnc1-c1nc2cc(C(F)(F)F)ncc2n1C [Compound P64]
≥ 80%: mortality at 200 ppm [1] | percent control (mortality, anti-feedant effect or growth inhibition) at 200 ppm [4] | mortality at 200 ppm [5] | percent effect (mortality or growth inhibition) at 200 ppm [6] | mortality at 200 ppm [7] | mortality at 200 ppm [8] | mortality at 200 ppm [10] | percent control (mortality, anti-feedancy or growth inhibition) at 12.5 ppm [11]

CCS(=O)(=O)c1cc(-c2ccoc2)cnc1-c1nc2cc(C(F)(F)F)ncc2n1C [Compound P71]
≥ 80%: mortality at 200 ppm [1] | percent effect (mortality or growth inhibition) at 200 ppm [6] | mortality at 200 ppm [7] | mortality at 200 ppm [8] | mortality at 200 ppm [10] | percent control (mortality, anti-feedancy or growth inhibition) at 12.5 ppm [11]

CCS(=O)(=O)c1cc(-n2cnc(C(F)(F)F)n2)cnc1-c1nc2cc(C(F)(F)F)ncc2n1C [Compound P110]
≥ 80%: mortality at 200 ppm [1] | mortality at 24 ppm [12] | mortality at 200 ppm [2] | mortality at 200 ppm [3] | percent control (mortality, anti-feedant effect or growth inhibition) at 200 ppm [4] | percent effect (mortality or growth inhibition) at 200 ppm [6] | mortality at 200 ppm [7] | mortality at 200 ppm [8] | pest or weed control at 200 ppm [9] | mortality at 200 ppm [10]

CCS(=O)(=O)c1cc(-c2ncc(C#N)cn2)cnc1-c1nc2cc(C(F)(F)F)ncc2n1C [Compound P111]
≥ 80%: mortality at 24 ppm [12] | mortality at 200 ppm [2] | mortality at 200 ppm [3] | percent control (mortality, anti-feedant effect or growth inhibition) at 200 ppm [4] | mortality at 200 ppm [5] | percent effect (mortality or growth inhibition) at 200 ppm [6] | mortality at 200 ppm [7] | mortality at 200 ppm [8] | pest or weed control at 200 ppm [9] | mortality at 200 ppm [10]
